Test systems include Mtb. Praha 1 (MDR-TB); Mtb. Praha 4 (MDR-TB); Mtb. Praha 131 (XDR-TB); Mtb. 234/2005 (MDR-TB); Mtb. 9449/2007 (MDR-TB); Mtb. 7357/1998 (MDR-TB); Mtb. 8666/2010 (MDR-TB).
Common to all, as to test: microbe, parasite or virus in culture
Common to all, as to assay type: cell-based, Mycobacterium tuberculosis
Holding throughout (settings): Mycobacterium tuberculosis

Setting [1] is: 336 h, read-out: MIC Mtb. Praha 1 14 d.
[2] abbreviates: 504 h, read-out: MIC Mtb. Praha 1 21 d.
Setting [3] is: 336 h, read-out: MIC Mtb. Praha 4 14 d.
The mark [4] stands for this setting: 504 h, read-out: MIC Mtb. Praha 4 21 d.
Setting [5] is: 336 h, read-out: MIC Mtb. Praha 131 14 d.
Setting [6] is: 504 h, read-out: MIC Mtb. Praha 131 21 d.
[7] abbreviates: 336 h, read-out: MIC Mtb. 234/2005 14 d.
Where [8] appears, read: 504 h, read-out: MIC Mtb. 234/2005 21 d.
Setting [9] is: 336 h, read-out: MIC Mtb. 9449/2007 14 d.
The mark [10] stands for this setting: 504 h, read-out: MIC Mtb. 9449/2007 21 d.
Where [11] appears, read: 336 h, read-out: MIC Mtb. 7357/1998 14 d.
Setting [12] is: 504 h, read-out: MIC Mtb. 7357/1998 21 d.
Where [13] appears, read: 336 h, read-out: MIC Mtb. 8666/2010 14 d.
Setting [14] is: 504 h, read-out: MIC Mtb. 8666/2010 21 d.

Values after ≈ are worked out from the molar mass of the structure shown. Like-named read-outs stand apart in the source and are kept apart here.

Turning to `C/C(=N\NC(=O)c1ccncc1)C(=O)Oc1ccccc1` [3b, Phenyl (E)-2-(2-isonicotinoylhydrazineylidene)propanoate], the MIC in the test with Mtb. Praha 1 (MDR-TB) (setting [1]), in the test on Mtb. Praha 1 (MDR-TB) (setting [2]), in the test with Mtb. Praha 4 (MDR-TB) (setting [3]), in the test on Mtb. Praha 4 (MDR-TB) (setting [4]), with Mtb. Praha 131 (XDR-TB) (setting [5]) and in the test on Mtb. Praha 131 (XDR-TB) (setting [6]) was 16 µM (≈ 4.53 µg/mL) throughout. The MIC in the test on Mtb. 234/2005 (MDR-TB) (setting [7]) came to 32 µM (≈ 9.07 µg/mL); in the test with Mtb. 234/2005 (MDR-TB) (setting [8]), 32 µM (≈ 9.07 µg/mL); in the test on Mtb. 9449/2007 (MDR-TB) (setting [9]) it was 32 µM (≈ 9.07 µg/mL); in the test on Mtb. 9449/2007 (MDR-TB) (setting [10]), 32 µM (≈ 9.07 µg/mL); in the test on Mtb. 7357/1998 (MDR-TB) (setting [11]), 16 µM (≈ 4.53 µg/mL); in the test on Mtb. 7357/1998 (MDR-TB) (setting [12]), 16 µM (≈ 4.53 µg/mL). The MIC in the test on Mtb. 8666/2010 (MDR-TB) (setting [13]) and in the test with Mtb. 8666/2010 (MDR-TB) (setting [14]) was 16 µM (≈ 4.53 µg/mL) each time.

For `COc1ccc(OC(=O)/C(C)=N/NC(=O)c2ccncc2)cc1` [3d, 4-Methoxyphenyl (E)-2-(2-isonicotinoylhydrazineylidene)propanoate], the MIC in the test on Mtb. Praha 1 (MDR-TB) (setting [1]) turned out to be 8 µM (≈ 2.51 µg/mL); in the test on Mtb. Praha 1 (MDR-TB) (setting [2]), 16 µM (≈ 5.01 µg/mL); in the test on Mtb. Praha 4 (MDR-TB) (setting [3]) it was 16 µM (≈ 5.01 µg/mL); with Mtb. Praha 4 (MDR-TB) (setting [4]) it was 32 µM (≈ 10 µg/mL); in the test with Mtb. Praha 131 (XDR-TB) (setting [5]), 8 µM (≈ 2.51 µg/mL); in the test on Mtb. Praha 131 (XDR-TB) (setting [6]), 16 µM (≈ 5.01 µg/mL). For the same compound, the MIC in the test with Mtb. 234/2005 (MDR-TB) (setting [7]) was determined as 16 µM (≈ 5.01 µg/mL); in the test on Mtb. 234/2005 (MDR-TB) (setting [8]) it was 32 µM (≈ 10 µg/mL); with Mtb. 9449/2007 (MDR-TB) (setting [9]), 16 µM (≈ 5.01 µg/mL); in the test on Mtb. 9449/2007 (MDR-TB) (setting [10]), 16 µM (≈ 5.01 µg/mL); in the test with Mtb. 7357/1998 (MDR-TB) (setting [11]), 16 µM (≈ 5.01 µg/mL); with Mtb. 7357/1998 (MDR-TB) (setting [12]) it was 16 µM (≈ 5.01 µg/mL). Further, the MIC is 8 µM (≈ 2.51 µg/mL) with Mtb. 8666/2010 (MDR-TB) (setting [13]) and 16 µM (≈ 5.01 µg/mL) with Mtb. 8666/2010 (MDR-TB) (setting [14]).

In the case of `C/C(=N\NC(=O)c1ccncc1)C(=O)Sc1ccccc1` [3s, S-Phenyl (E)-2-(2-isonicotinoylhydrazineylidene)propanethioate], the MIC in the test on Mtb. Praha 1 (MDR-TB) (setting [1]) was found to be 64 µM (≈ 19.2 µg/mL); in the test on Mtb. Praha 1 (MDR-TB) (setting [2]), 125 µM (≈ 37.4 µg/mL); with Mtb. Praha 4 (MDR-TB) (setting [3]), 32 µM (≈ 9.58 µg/mL); in the test with Mtb. Praha 4 (MDR-TB) (setting [4]) it was 64 µM (≈ 19.2 µg/mL); with Mtb. Praha 131 (XDR-TB) (setting [5]) it was 32 µM (≈ 9.58 µg/mL); with Mtb. Praha 131 (XDR-TB) (setting [6]), 64 µM (≈ 19.2 µg/mL). Also, the MIC in the test with Mtb. 234/2005 (MDR-TB) (setting [7]) was found to be 32 µM (≈ 9.58 µg/mL); with Mtb. 234/2005 (MDR-TB) (setting [8]) it was 64 µM (≈ 19.2 µg/mL); with Mtb. 9449/2007 (MDR-TB) (setting [9]), 64 µM (≈ 19.2 µg/mL); in the test on Mtb. 9449/2007 (MDR-TB) (setting [10]), 64 µM (≈ 19.2 µg/mL); in the test with Mtb. 7357/1998 (MDR-TB) (setting [11]), 32 µM (≈ 9.58 µg/mL); with Mtb. 7357/1998 (MDR-TB) (setting [12]), 64 µM (≈ 19.2 µg/mL). Moreover, the MIC in the test on Mtb. 8666/2010 (MDR-TB) (setting [13]) and in the test on Mtb. 8666/2010 (MDR-TB) (setting [14]) was 32 µM (≈ 9.58 µg/mL) throughout.

On to `C/C(=N\NC(=O)c1ccncc1)C(=O)OCCn1c([N+](=O)[O-])cnc1C` [3q, 2-(2-Methyl-5-nitro-1H-imidazol-1-yl)ethyl (E)-2-(2 isonicotinoylhydrazineylidene)propanoate], for which the MIC in the test on Mtb. Praha 1 (MDR-TB) (setting [1]) was found to be 125 µM (≈ 45 µg/mL); with Mtb. Praha 1 (MDR-TB) (setting [2]), 125 µM (≈ 45 µg/mL); with Mtb. Praha 4 (MDR-TB) (setting [3]) it was 32 µM (≈ 11.5 µg/mL); in the test with Mtb. Praha 4 (MDR-TB) (setting [4]), 32 µM (≈ 11.5 µg/mL); in the test with Mtb. Praha 131 (XDR-TB) (setting [5]), 16 µM (≈ 5.77 µg/mL); in the test on Mtb. Praha 131 (XDR-TB) (setting [6]), 32 µM (≈ 11.5 µg/mL). The MIC in the test on Mtb. 234/2005 (MDR-TB) (setting [7]) is 32 µM (≈ 11.5 µg/mL); in the test on Mtb. 234/2005 (MDR-TB) (setting [8]) it was 32 µM (≈ 11.5 µg/mL); in the test on Mtb. 9449/2007 (MDR-TB) (setting [9]) it was 32 µM (≈ 11.5 µg/mL); in the test with Mtb. 9449/2007 (MDR-TB) (setting [10]) it was 32 µM (≈ 11.5 µg/mL); in the test on Mtb. 7357/1998 (MDR-TB) (setting [11]), 16 µM (≈ 5.77 µg/mL); in the test with Mtb. 7357/1998 (MDR-TB) (setting [12]), 32 µM (≈ 11.5 µg/mL). Besides, the MIC with Mtb. 8666/2010 (MDR-TB) (setting [13]) and with Mtb. 8666/2010 (MDR-TB) (setting [14]) was 16 µM (≈ 5.77 µg/mL) each time.

On to `C/C(=N\NC(=O)c1ccncc1)C(=O)Oc1cccc2ccccc12` [3i, Naphthalen-1-yl (E)-2-(2-isonicotinoylhydrazineylidene)propanoate], for which the MIC in the test with Mtb. Praha 1 (MDR-TB) (setting [1]) came out at 64 µM (≈ 21.3 µg/mL); with Mtb. Praha 1 (MDR-TB) (setting [2]), 125 µM (≈ 41.7 µg/mL); with Mtb. Praha 4 (MDR-TB) (setting [3]), 16 µM (≈ 5.33 µg/mL); in the test with Mtb. Praha 4 (MDR-TB) (setting [4]) it was 32 µM (≈ 10.7 µg/mL); in the test with Mtb. Praha 131 (XDR-TB) (setting [5]), 32 µM (≈ 10.7 µg/mL); with Mtb. Praha 131 (XDR-TB) (setting [6]), 32 µM (≈ 10.7 µg/mL). The MIC in the test on Mtb. 234/2005 (MDR-TB) (setting [7]) was found to be 16 µM (≈ 5.33 µg/mL); in the test with Mtb. 234/2005 (MDR-TB) (setting [8]) it was 32 µM (≈ 10.7 µg/mL); with Mtb. 9449/2007 (MDR-TB) (setting [9]), 32 µM (≈ 10.7 µg/mL); in the test with Mtb. 9449/2007 (MDR-TB) (setting [10]), 32 µM (≈ 10.7 µg/mL); in the test on Mtb. 7357/1998 (MDR-TB) (setting [11]), 16 µM (≈ 5.33 µg/mL); in the test with Mtb. 7357/1998 (MDR-TB) (setting [12]), 32 µM (≈ 10.7 µg/mL). The MIC in the test on Mtb. 8666/2010 (MDR-TB) (setting [13]) and in the test with Mtb. 8666/2010 (MDR-TB) (setting [14]) was 16 µM (≈ 5.33 µg/mL) each time.

For `C/C(=N\NC(=O)c1ccncc1)C(=O)Oc1cccc2cccnc12` [3m, Quinolin-8-yl (E)-2-(2-isonicotinoylhydrazineylidene)propanoate], the MIC in the test with Mtb. Praha 1 (MDR-TB) (setting [1]), in the test with Mtb. Praha 1 (MDR-TB) (setting [2]), with Mtb. Praha 4 (MDR-TB) (setting [3]), in the test with Mtb. Praha 4 (MDR-TB) (setting [4]), with Mtb. Praha 131 (XDR-TB) (setting [5]) and in the test with Mtb. Praha 131 (XDR-TB) (setting [6]) was 8 µM (≈ 2.67 µg/mL) throughout. For the same compound, the MIC in the test on Mtb. 234/2005 (MDR-TB) (setting [7]), in the test on Mtb. 234/2005 (MDR-TB) (setting [8]), in the test with Mtb. 9449/2007 (MDR-TB) (setting [9]), with Mtb. 9449/2007 (MDR-TB) (setting [10]), with Mtb. 7357/1998 (MDR-TB) (setting [11]) and in the test with Mtb. 7357/1998 (MDR-TB) (setting [12]) was 8 µM (≈ 2.67 µg/mL) in each case. Moreover, the MIC in the test with Mtb. 8666/2010 (MDR-TB) (setting [13]) and with Mtb. 8666/2010 (MDR-TB) (setting [14]) was 8 µM (≈ 2.67 µg/mL) in each case.
